Test results: patent US8883827B2, “Azole derivatives as WTN pathway inhibitors” (Oslo University Hospital HF, priority 2009, dated 2014)

How the values were obtained:
[1] = tested on: SW480 cells; experiment: Illumina microarray gene expression analysis; assay type: cell-based; conditions: x at 25 μM only
Protocol: A microarray analysis using an Illumina® array was performed in triplicate to investigate differential gene expression in cells treated with a Wnt pathway inhibitor. […] In vitro transcription reactions were incubated overnight (14 hr). Labeled cRNA was hybridized to Illumina® Human-6 v3 BeadChips (Illumina, San Diego, Calif.) at 58° C. overnight, according to the Illumina® Whole-Genome Gene Expression Protocol for BeadStation (Doc. #11226030.rev.C, Illumina Inc.). The hybridized BeadChip was stained with streptavidin-Cy3 (Amersham™, PA43001) for visualization and scanned with an Illumina® BeadArray Reader. The scanned images were imported into BeadStudio 3.1.3.0 (Illumina Inc) for extraction and quality control. A criterion of 0.5-fold change in expression was applied to the analysis. […] A list of differentially expressed genes of interest is given below in tables 1 and 2. […] Many known Wnt target genes (column 3) were influenced in treated cells. Some genes were influenced that are also affected in Ls174T colorectal cancer cells expressing an inducible dominant negative form of TCF-4 (column 4) (van de Wetering et al., Mol. Cell. Biol. (2008) 28(8), p. 2732-44). Other influenced genes that are important for cell cycle control and other genes correlated to regulated canonical Wnt signaling are also shown. The degree of modulation (column 5) is an indication of the degree of change between the non-treated and compound No. 1 treated samples.

[2] = molecular target: T1, PKBα(h) (Homo sapiens, UniProt P31749); experiment: Kinase screen; assay type: biochemical; conditions: 0.1% DMSO control = 100%
T1 construct: purchased Millipore (KinaseProfiler service)
T1 sequence (P31749 whole entry): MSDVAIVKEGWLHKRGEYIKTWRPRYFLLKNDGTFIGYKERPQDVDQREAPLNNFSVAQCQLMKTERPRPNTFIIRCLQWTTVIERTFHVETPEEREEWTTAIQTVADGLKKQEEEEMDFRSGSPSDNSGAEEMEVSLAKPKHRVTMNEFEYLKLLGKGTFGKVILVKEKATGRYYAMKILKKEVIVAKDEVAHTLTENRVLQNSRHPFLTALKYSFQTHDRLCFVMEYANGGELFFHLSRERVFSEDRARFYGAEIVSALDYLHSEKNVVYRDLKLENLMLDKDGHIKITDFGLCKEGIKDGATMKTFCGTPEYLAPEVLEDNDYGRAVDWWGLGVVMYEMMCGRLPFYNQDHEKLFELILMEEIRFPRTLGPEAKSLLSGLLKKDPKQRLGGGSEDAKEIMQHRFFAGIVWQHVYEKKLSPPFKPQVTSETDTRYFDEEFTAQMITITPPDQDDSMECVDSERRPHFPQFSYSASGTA

COc1ccc(-n2c(SCc3nc(-c4ccc(C)cc4)no3)nnc2-c2ccncc2)cc1 [Compound 1]
Degree of modulation: CD44 molecule (Indian blood group) [1]: + (moderate up-regulation (log^2 ratio of between 0.5 and 1.0)) | Degree of modulation: FOS-like antigen 1 [1]: + (moderate up-regulation (log^2 ratio of between 0.5 and 1.0)) | Degree of modulation: PDZ and LIM domain 1 [1]: − (moderate down-regulation (log^2 ratio of between −0.5 and −1.0)) | Degree of modulation: Sp5 transcription factor [1]: − (moderate down-regulation (log^2 ratio of between −0.5 and −1.0)) | Degree of modulation: adenomatosis polyposis coli down-regulated 1 [1]: −− (strong down-regulation (log^2 ratio of between −1.0 and −1.5)) | Degree of modulation: baculoviral IAP repeat-containing 5 [1]: − (moderate down-regulation (log^2 ratio of between −0.5 and −1.0)) | Degree of modulation: bone morphogenetic protein 1 [1]: + (moderate up-regulation (log^2 ratio of between 0.5 and 1.0)) | Degree of modulation: bone morphogenetic protein 7 [1]: − (moderate down-regulation (log^2 ratio of between −0.5 and −1.0)) | Degree of modulation: c-abl oncogene 1, receptor tyrosine kinase [1]: − (moderate down-regulation (log^2 ratio of between −0.5 and −1.0)) | Degree of modulation: cell division cycle 25 homolog C (S. pombe) [1]: − (moderate down-regulation (log^2 ratio of between −0.5 and −1.0)) | Degree of modulation: cell division cycle associated 8 [1]: − (moderate down-regulation (log^2 ratio of between −0.5 and −1.0)) | Degree of modulation: cyclin B2 [1]: − (moderate down-regulation (log^2 ratio of between −0.5 and −1.0)) | Degree of modulation: cyclin-dependent kinase 8 [1]: − (moderate down-regulation (log^2 ratio of between −0.5 and −1.0)) | Degree of modulation: cyclin-dependent kinase inhibitor 1B (p27, Kip1) [1]: − (moderate down-regulation (log^2 ratio of between −0.5 and −1.0)) | Degree of modulation: cysteine-rich, angiogenic inducer, 61 [1]: −−− (very strong down-regulation (log^2 ratio of between −1.5 and −2)) | Degree of modulation: disabled homolog 2, mitogen-responsive phosphoprotein (Drosophila) [1]: − (moderate down-regulation (log^2 ratio of between −0.5 and −1.0)) | Degree of modulation: dynein, axonemal, heavy chain 3 [1]: − (moderate down-regulation (log^2 ratio of between −0.5 and −1.0)) | Degree of modulation: dynein, axonemal, heavy chain 5 [1]: + (moderate up-regulation (log^2 ratio of between 0.5 and 1.0)) | Degree of modulation: dynein, light chain, LC8-type 2 [1]: − (moderate down-regulation (log^2 ratio of between −0.5 and −1.0)) | Degree of modulation: dynein, light chain, roadblock-type 1 [1]: − (moderate down-regulation (log^2 ratio of between −0.5 and −1.0)) | Degree of modulation: ephrin-A4 [1]: − (moderate down-regulation (log^2 ratio of between −0.5 and −1.0)) | Degree of modulation: ephrin-B2 [1]: ++ (strong up-regulation (log^2 ratio of between 1.0 and 1.5)) | Degree of modulation: epidermal growth factor receptor (erythroblastic leukemia viral (v-erb-b) oncogene homolog, avian) [1]: + (moderate up-regulation (log^2 ratio of between 0.5 and 1.0)) | Degree of modulation: ets variant gene 3 [1]: −− (strong down-regulation (log^2 ratio of between −1.0 and −1.5)) | Degree of modulation: fibroblast growth factor 20 [1]: − (moderate down-regulation (log^2 ratio of between −0.5 and −1.0)) | Degree of modulation: forkhead box F1 [1]: + (moderate up-regulation (log^2 ratio of between 0.5 and 1.0)) | Degree of modulation: forkhead box M1 [1]: − (moderate down-regulation (log^2 ratio of between −0.5 and −1.0)) | Degree of modulation: frizzled homolog 2 (Drosophila) [1]: −− (strong down-regulation (log^2 ratio of between −1.0 and −1.5)) | Degree of modulation: interleukin 8 [1]: ++ (strong up-regulation (log^2 ratio of between 1.0 and 1.5)) | Degree of modulation: low density lipoprotein receptor-related protein 5-like [1]: + (moderate up-regulation (log^2 ratio of between 0.5 and 1.0)) | Degree of modulation: matrix metallopeptidase 7 (matrilysin, uterine) [1]: − (moderate down-regulation (log^2 ratio of between −0.5 and −1.0)) | Degree of modulation: met proto-oncogene (hepatocyte growth factor receptor) [1]: + (moderate up-regulation (log^2 ratio of between 0.5 and 1.0)) | Degree of modulation: mitogen-activated protein kinase kinase kinase kinase 1 [1]: − (moderate down-regulation (log^2 ratio of between −0.5 and −1.0)) | Degree of modulation: nitric oxide synthase 3 (endothelial cell) [1]: +++ (very strong up-regulation (log^2 ratio of between 1.5 and 2)) | Degree of modulation: origin recognition complex, subunit 1-like (yeast) [1]: − (moderate down-regulation (log^2 ratio of between −0.5 and −1.0)) | Degree of modulation: p53 and DNA damage regulated 1 [1]: − (moderate down-regulation (log^2 ratio of between −0.5 and −1.0)) | Degree of modulation: paired box 6 [1]: − (moderate down-regulation (log^2 ratio of between −0.5 and −1.0)) | Degree of modulation: paired related homeobox 2 [1]: − (moderate down-regulation (log^2 ratio of between −0.5 and −1.0)) | Degree of modulation: patched homolog 1 (Drosophila) [1]: − (moderate down-regulation (log^2 ratio of between −0.5 and −1.0)) | Degree of modulation: pituitary tumor-transforming 1 [1]: − (moderate down-regulation (log^2 ratio of between −0.5 and −1.0)) | Degree of modulation: plasminogen activator, urokinase [1]: + (moderate up-regulation (log^2 ratio of between 0.5 and 1.0)) | Degree of modulation: plasminogen activator, urokinase receptor [1]: + (moderate up-regulation (log^2 ratio of between 0.5 and 1.0)) | Degree of modulation: runt-related transcription factor 2 [1]: − (moderate down-regulation (log^2 ratio of between −0.5 and −1.0)) | Degree of modulation: sal-like 4 (Drosophila) [1]: + (moderate up-regulation (log^2 ratio of between 0.5 and 1.0)) | Degree of modulation: sex comb on midleg-like 1 (Drosophila) [1]: − (moderate down-regulation (log^2 ratio of between −0.5 and −1.0)) | Degree of modulation: snail homolog 2 (Drosophila) [1]: ++ (strong up-regulation (log^2 ratio of between 1.0 and 1.5)) | Degree of modulation: topoisomerase (DNA) II alpha 170 kDa [1]: − (moderate down-regulation (log^2 ratio of between −0.5 and −1.0)) | Degree of modulation: tumor necrosis factor receptor superfamily, member 19 [1]: − (moderate down-regulation (log^2 ratio of between −0.5 and −1.0)) | activity at 10 µM [2]: 79%
